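Where inhibition never reached the appropriate level, the endpoint shown equals the highest concentration tested. Otherwise, values were interpolated linearly from a five-concentration, 48-hour dose response in 96-well plates. Here, GI50 denotes the concentration required for 50% inhibition of growth.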 Active and inactive are the calls of the source. Rule as the data show it: active = GI50 up to about 1.1 µM and inactive = higher.
Columns and labels:
Assay in all cases: DTP human tumour cell line panel, 48 h
HT-29 = test system: HT-29
NCI-H23 = test system: NCI-H23
SR = test system: SR
CCRF-CEM = test system: CCRF-CEM
NCI-H226 = test system: NCI-H226
786-0 = test system: 786-0
HCT-116 = test system: HCT-116
CAKI-1 = test system: CAKI-1
SF-539 = test system: SF-539
M14 = test system: M14
SNB-75 = test system: SNB-75
IGROV-1 = test system: IGROV-1
SNB-19 = test system: SNB-19
ACHN = test system: ACHN
UACC-257 = test system: UACC-257
NCI-H522 = test system: NCI-H522
EKVX = test system: EKVX
Malme-3M = test system: Malme-3M
OVCAR-4 = test system: OVCAR-4
OVCAR-3 = test system: OVCAR-3

Measured: GI50

COC(=O)/C=C1/SC(/C(=C(/[O-])OC)[n+]2ccc3ccccc3c2)=NC1=O
inactive: HT-29 > 100 µM | NCI-H23 > 100 µM | SR 63 µM | CCRF-CEM > 100 µM | NCI-H226 > 100 µM | 786-0 > 100 µM | HCT-116 > 100 µM | CAKI-1 > 100 µM | SF-539 23 µM | M14 > 100 µM | SNB-75 90.2 µM | IGROV-1 > 100 µM | SNB-19 > 100 µM | ACHN > 100 µM | UACC-257 > 100 µM | NCI-H522 > 100 µM | EKVX > 100 µM | Malme-3M > 100 µM

O=C(Nc1ccccc1)Oc1ccc(C(=S)Nc2ccc(Br)cc2)cc1
inactive: HT-29 16.8 µM | OVCAR-4 14.3 µM | NCI-H23 17.5 µM | SR 13.4 µM | CCRF-CEM 8.57 µM | 786-0 19.4 µM | HCT-116 17.3 µM | CAKI-1 15.3 µM | SF-539 18.6 µM | IGROV-1 6.43 µM | OVCAR-3 18.9 µM | ACHN 23.3 µM | UACC-257 20.5 µM | NCI-H522 11 µM | EKVX 5.13 µM | Malme-3M 19.2 µM

COc1ccc2nc(-c3ccccc3)cc(OCC(=O)O)c2c1
inactive: HT-29 > 100 µM | NCI-H23 > 100 µM | SR > 100 µM | CCRF-CEM > 100 µM | NCI-H226 > 100 µM | 786-0 > 100 µM | HCT-116 > 100 µM | CAKI-1 > 100 µM | SF-539 > 100 µM | M14 > 100 µM | SNB-75 > 100 µM | IGROV-1 > 100 µM | OVCAR-3 > 100 µM | SNB-19 > 100 µM | ACHN > 100 µM | UACC-257 > 100 µM | NCI-H522 > 100 µM | EKVX > 100 µM | Malme-3M > 100 µM

CC(=O)Nc1nc(C)c(S(=O)(=O)NC(=O)N2c3ccccc3CCc3ccccc32)s1
inactive: HT-29 > 100 µM | OVCAR-4 > 100 µM | NCI-H23 > 100 µM | SR > 100 µM | CCRF-CEM 44.6 µM | 786-0 > 100 µM | HCT-116 > 100 µM | CAKI-1 > 100 µM | SF-539 > 100 µM | M14 > 100 µM | SNB-75 > 100 µM | IGROV-1 > 100 µM | OVCAR-3 > 100 µM | SNB-19 29.4 µM | ACHN > 100 µM | UACC-257 > 100 µM | NCI-H522 > 100 µM | EKVX > 100 µM | Malme-3M > 100 µM

COc1cc(C2c3cc4c(cc3C(O)C3CCC(=O)N23)OCO4)cc(OC)c1OC (stereo unspecified)
inactive: HT-29 29.9 µM | NCI-H23 53 µM | SR 39.9 µM | CCRF-CEM 29.9 µM | NCI-H226 37.5 µM | 786-0 52.5 µM | HCT-116 24.3 µM | CAKI-1 28.2 µM | SF-539 > 10 µM | M14 38.9 µM | SNB-75 26.7 µM | IGROV-1 39.5 µM | OVCAR-3 31.6 µM | SNB-19 29.9 µM | ACHN 40 µM | UACC-257 > 100 µM | NCI-H522 16.9 µM | EKVX > 100 µM | Malme-3M > 100 µM

COC(=O)C1=Nc2c(C)nn(-c3ccccc3)c2N=C(c2ccc([N+](=O)[O-])cc2)C1
inactive: HT-29 > 10 µM | OVCAR-4 > 10 µM | NCI-H23 > 10 µM | SR > 10 µM | CCRF-CEM > 10 µM | 786-0 > 10 µM | HCT-116 > 10 µM | CAKI-1 > 10 µM | SF-539 > 10 µM | M14 > 10 µM | SNB-75 > 10 µM | IGROV-1 > 10 µM | OVCAR-3 > 10 µM | SNB-19 > 10 µM | ACHN > 10 µM | UACC-257 > 10 µM | NCI-H522 > 10 µM | Malme-3M > 10 µM

COC(=O)NC(Cc1ccccc1)NC(C)=O (stereo unspecified)
inactive: HT-29 > 100 µM | OVCAR-4 > 100 µM | NCI-H23 > 100 µM | SR > 100 µM | CCRF-CEM > 100 µM | 786-0 > 100 µM | HCT-116 > 100 µM | CAKI-1 > 100 µM | SF-539 > 100 µM | M14 > 100 µM | SNB-75 > 100 µM | IGROV-1 > 100 µM | OVCAR-3 > 100 µM | SNB-19 > 100 µM | ACHN > 100 µM | UACC-257 > 100 µM | NCI-H522 > 100 µM | EKVX > 100 µM | Malme-3M > 100 µM

C#CCOC(=O)c1ccc(OC(C)=O)cc1
inactive: OVCAR-4 > 100 µM | NCI-H23 > 100 µM | SR > 100 µM | CCRF-CEM > 100 µM | NCI-H226 > 100 µM | 786-0 > 100 µM | HCT-116 > 100 µM | CAKI-1 > 100 µM | SF-539 > 100 µM | M14 > 100 µM | SNB-75 > 100 µM | IGROV-1 > 100 µM | OVCAR-3 > 100 µM | SNB-19 > 100 µM | ACHN > 100 µM | UACC-257 > 100 µM | NCI-H522 > 100 µM | EKVX > 100 µM

COc1ccc(N2C(=O)C3c4[nH]c5cc(Cl)ccc5c4C4CCC(C(C)(C)C)CC4C3C2=O)cc1 (stereo unspecified)
inactive: HT-29 31.7 µM | OVCAR-4 94.4 µM | NCI-H23 93.3 µM | SR 12.6 µM | CCRF-CEM 37.9 µM | NCI-H226 > 100 µM | 786-0 > 100 µM | HCT-116 55.6 µM | SF-539 96.8 µM | M14 > 100 µM | SNB-75 > 100 µM | IGROV-1 > 100 µM | OVCAR-3 67.6 µM | SNB-19 > 100 µM | ACHN 61.1 µM | UACC-257 > 100 µM | NCI-H522 > 100 µM | EKVX 59.2 µM

COc1cc(C(=O)C/C(CCC(=O)Nc2ccccc2[N+](=O)[O-])=N\NC(N)=O)ccc1O
inactive: HT-29 > 100 µM | NCI-H23 > 100 µM | SR > 100 µM | CCRF-CEM > 100 µM | NCI-H226 > 100 µM | 786-0 > 100 µM | HCT-116 > 100 µM | CAKI-1 > 100 µM | SF-539 > 100 µM | M14 > 100 µM | SNB-75 > 100 µM | IGROV-1 > 100 µM | OVCAR-3 > 100 µM | SNB-19 > 100 µM | ACHN > 100 µM | UACC-257 > 100 µM | NCI-H522 > 100 µM | EKVX 32.9 µM | Malme-3M > 100 µM

COC(=O)c1c(C)[n+]([O-])c2cc(Cl)c(Cl)cc2[n+]1[O-]
inactive: HT-29 18.7 µM | OVCAR-4 19 µM | NCI-H23 30.1 µM | SR 6.17 µM | CCRF-CEM 10.4 µM | 786-0 27.2 µM | HCT-116 15.5 µM | CAKI-1 20.7 µM | SF-539 18.9 µM | M14 24.5 µM | IGROV-1 4.39 µM | OVCAR-3 16.6 µM | SNB-19 27.4 µM | ACHN 15.8 µM | UACC-257 17.1 µM | NCI-H522 10.1 µM | EKVX 19.5 µM | Malme-3M 8.45 µM
